# Reference: patent US10357493B2, “Metalloenzyme inhibitor compounds” (Selenity Therapeutics (Bermuda), Ltd., priority 2017, dated 2019)
# Read-outs that look alike come from different tables or passages of the source.
# Tests used:
# HDAC1 = HDAC1 (Homo sapiens (Human), UniProt Q13547); experiment: HDAC1 enzymatic assay; format: biochemical
# Method in brief: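 Compound inhibition of human HDAC1 (0.5 ng enzyme, 10 uM substrate) was assessed by fluorescence after developer treatment, excitation 360 nm and emission 460 nm. Percent activity was normalized to no-compound (100%) and no-enzyme (0%) controls, plotted against concentration, and fitted to a sigmoidal dose-response curve in Graphpad Prism to obtain IC50 at half-maximal activity.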
# [1] = Mouse Pharmacokinetics, oral single dose; format: in vivo, male Swiss Albino mice; settings: male, Swiss Albino, plasma, 5 mg/kg, formulation by footnote: a 20% CremEL in H20, b 1% CMC in water, c 2% DMSO, 0.2% Tween80, 97.8% of 1% CMC
# Method: Example 187: Mouse Pharmacokinetics
# A dose of 5 mg/kg in an appropriate formulation was administered by oral gavage to fasted male Swiss Albino mice (n=3), and the plasma was collected at 0, 0.25, 0.5, 1, 2, 4, 8, and 24 h. Plasma levels were measured by HPLC/MS/MS methods and the pharmacokinetic parameters were determined for individual animals from plasma concentration-time data using noncompartmental model 200-202 in Phoenix WinNonlin 6.3.
# HDAC6 = HDAC6 (Homo sapiens (Human), UniProt Q9UBN7); experiment: HDAC6 enzymatic assay; format: biochemical
# HDAC6, sequence (Q9UBN7 whole entry): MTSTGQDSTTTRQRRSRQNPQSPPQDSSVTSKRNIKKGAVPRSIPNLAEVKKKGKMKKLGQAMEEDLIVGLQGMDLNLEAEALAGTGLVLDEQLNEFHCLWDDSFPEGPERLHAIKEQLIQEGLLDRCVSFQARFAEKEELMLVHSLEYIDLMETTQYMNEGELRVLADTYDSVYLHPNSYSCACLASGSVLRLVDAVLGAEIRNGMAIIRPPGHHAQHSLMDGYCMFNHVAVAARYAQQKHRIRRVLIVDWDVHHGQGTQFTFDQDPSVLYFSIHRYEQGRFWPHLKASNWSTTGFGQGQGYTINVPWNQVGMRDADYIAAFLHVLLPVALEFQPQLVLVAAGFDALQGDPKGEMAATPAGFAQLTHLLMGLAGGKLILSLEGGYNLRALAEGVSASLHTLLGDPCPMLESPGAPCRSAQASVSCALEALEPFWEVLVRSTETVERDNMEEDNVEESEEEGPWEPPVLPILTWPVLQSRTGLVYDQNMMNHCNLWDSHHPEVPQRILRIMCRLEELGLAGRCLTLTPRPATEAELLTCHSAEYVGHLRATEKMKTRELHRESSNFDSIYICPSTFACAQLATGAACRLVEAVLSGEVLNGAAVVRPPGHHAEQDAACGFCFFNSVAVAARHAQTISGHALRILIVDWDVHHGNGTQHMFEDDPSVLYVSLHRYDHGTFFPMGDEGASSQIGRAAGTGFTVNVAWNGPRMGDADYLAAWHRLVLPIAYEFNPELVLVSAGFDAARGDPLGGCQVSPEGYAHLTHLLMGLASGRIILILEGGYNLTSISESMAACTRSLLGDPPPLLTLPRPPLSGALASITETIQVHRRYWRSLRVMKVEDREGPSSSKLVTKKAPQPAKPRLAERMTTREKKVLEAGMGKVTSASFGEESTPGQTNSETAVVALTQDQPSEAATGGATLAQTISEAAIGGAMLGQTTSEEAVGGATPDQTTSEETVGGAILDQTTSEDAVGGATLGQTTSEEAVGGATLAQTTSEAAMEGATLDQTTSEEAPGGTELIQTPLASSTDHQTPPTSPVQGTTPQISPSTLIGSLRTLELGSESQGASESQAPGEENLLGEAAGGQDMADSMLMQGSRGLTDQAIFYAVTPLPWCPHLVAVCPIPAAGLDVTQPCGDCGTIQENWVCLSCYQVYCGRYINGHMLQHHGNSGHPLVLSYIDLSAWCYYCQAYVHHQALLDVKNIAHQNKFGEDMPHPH
# Method in brief: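 Following a 17 hour room-temperature incubation of 2 ng HDAC6 with 10 uM substrate and compound, 50 μl developer was added for another 20 minutes, and fluorescence (excitation 360 nm, emission 460 nm) was recorded. Activity was normalized to no-compound (100%) and no-enzyme (0%) wells, and IC50 came from sigmoidal dose-response fitting in Graphpad Prism.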
# HDAC5 = HDAC5 (Homo sapiens (Human), UniProt Q9UQL6); experiment: HDAC5 enzymatic assay; format: biochemical; settings: selectivity profile; read-out: HDAC Enzyme IC50, HDAC 5
# HDAC5, sequence (Q9UQL6 whole entry, species assumed): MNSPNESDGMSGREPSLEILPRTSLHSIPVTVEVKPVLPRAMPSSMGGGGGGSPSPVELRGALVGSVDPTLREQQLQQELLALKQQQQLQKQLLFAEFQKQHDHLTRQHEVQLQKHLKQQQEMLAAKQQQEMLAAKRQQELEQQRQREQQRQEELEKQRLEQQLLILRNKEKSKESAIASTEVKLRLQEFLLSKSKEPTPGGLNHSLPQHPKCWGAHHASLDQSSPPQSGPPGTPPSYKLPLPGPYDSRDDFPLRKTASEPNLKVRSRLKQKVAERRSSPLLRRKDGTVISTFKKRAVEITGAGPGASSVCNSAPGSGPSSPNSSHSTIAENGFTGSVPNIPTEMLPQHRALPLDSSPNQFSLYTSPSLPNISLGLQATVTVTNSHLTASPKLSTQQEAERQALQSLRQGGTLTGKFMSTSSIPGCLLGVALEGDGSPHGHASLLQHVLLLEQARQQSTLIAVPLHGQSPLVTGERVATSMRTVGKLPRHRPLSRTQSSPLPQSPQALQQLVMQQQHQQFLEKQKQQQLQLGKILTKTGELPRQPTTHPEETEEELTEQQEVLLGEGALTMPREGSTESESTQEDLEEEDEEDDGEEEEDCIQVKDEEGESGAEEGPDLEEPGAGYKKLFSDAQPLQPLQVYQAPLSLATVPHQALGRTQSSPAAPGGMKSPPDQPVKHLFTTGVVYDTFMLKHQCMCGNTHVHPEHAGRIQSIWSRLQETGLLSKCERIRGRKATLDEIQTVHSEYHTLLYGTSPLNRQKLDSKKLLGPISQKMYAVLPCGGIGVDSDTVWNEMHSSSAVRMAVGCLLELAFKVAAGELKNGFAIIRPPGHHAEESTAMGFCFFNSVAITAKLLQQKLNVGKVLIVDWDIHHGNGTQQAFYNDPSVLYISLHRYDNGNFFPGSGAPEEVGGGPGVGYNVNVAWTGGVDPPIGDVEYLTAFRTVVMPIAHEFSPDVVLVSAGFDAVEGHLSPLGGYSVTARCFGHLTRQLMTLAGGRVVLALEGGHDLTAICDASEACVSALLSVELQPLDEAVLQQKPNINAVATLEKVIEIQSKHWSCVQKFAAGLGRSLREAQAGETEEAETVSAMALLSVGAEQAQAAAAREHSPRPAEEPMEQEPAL
# Method: (§1) All enzymatic reactions were conducted in duplicate at room temperature for 17 hours in a 50 μl mixture containing HDAC assay buffer (50 mM Tris-HCl, pH 7.4, 137 mM NaCl, 2.7 mM KCl, 0.05% Tween 20, 5 μg BSA), an HDAC substrate, an HDAC enzyme, and a test compound. Compound dilution was prepared ten-fold higher than the final concentration of the compounds with 10% DMSO in HDAC assay buffer and 5 μl of the dilution was added to a 50 μl reaction so that the final concentration of DMSO is 1% in all of reactions. After enzymatic reactions, 50 μl of HDAC Developer was added to each well and the plate was incubated at room temperature for an additional 20 minutes. Fluorescence intensity was measured at an excitation of 360 nm and an emission of 460 nm using a Tecan Infinite M1000 or Biotek Synergy microplate reader.
# (§2) The fluorescent intensity data were analyzed using the computer software, Graphpad Prism. In the absence of the compound, the fluorescent intensity (Ft) in each data set was defined as 100% activity. In the absence of HDAC, the fluorescent intensity (Fb) in each data set was defined as 0% activity. The percent activity in the presence of each compound was calculated according to the following equation: % activity=(F−Fb)/(Ft−Fb), where F=the fluorescent intensity in the presence of the compound.
# (§3) The values of % activity versus a series of compound concentrations were then plotted using non-linear regression analysis of Sigmoidal dose-response curve generated with the equation Y=B+(T−B)/1+10((Log EC50−X)×Hill Slope), where Y=percent activity, B=minimum percent activity, T=maximum percent activity, X=logarithm of compound and Hill Slope=slope factor or Hill coefficient. The IC50 value was determined by the concentration causing a half-maximal percent activity.
# (§4) HDAC1 enzymatic assays contained 0.5 ng HDAC1 and 10 uM of HDAC substrate. HDAC2 enzymatic assays contained 0.5 ng HDAC2 and 10 uM of HDAC substrate. HDAC3 enzymatic assays contained 0.4 ng HDAC3/NCOR2 and 10 uM of HDAC substrate. HDAC4 enzymatic assays contained 0.02 ng HDAC4 and 2 uM of HDAC substrate. HDAC5 enzymatic assays contained 0.5 ng HDAC5 and 2 uM of HDAC substrate. HDAC6 enzymatic assays contained 2 ng HDAC6 and 10 uM of HDAC substrate. HDAC7 enzymatic assays contained 0.05 ng HDAC7 and 2 uM of HDAC substrate. HDAC8 enzymatic assays contained 5 ng HDAC8 and 2 uM of HDAC substrate. HDAC9 enzymatic assays contained 1 ng HDAC9 and 2 uM of HDAC substrate. HDAC10 enzymatic assays contained 75 ng HDAC10 and 10 uM of HDAC substrate. HDAC11 enzymatic assays contained 5 ng HDAC11 and 2 uM of HDAC substrate.
# HDAC8 = HDAC8 (Homo sapiens (Human), UniProt Q9BY41); experiment: HDAC8 enzymatic assay; format: biochemical; settings: selectivity profile; read-out: HDAC Enzyme IC50, HDAC 8
# HDAC8, sequence (Q9BY41 whole entry, species assumed): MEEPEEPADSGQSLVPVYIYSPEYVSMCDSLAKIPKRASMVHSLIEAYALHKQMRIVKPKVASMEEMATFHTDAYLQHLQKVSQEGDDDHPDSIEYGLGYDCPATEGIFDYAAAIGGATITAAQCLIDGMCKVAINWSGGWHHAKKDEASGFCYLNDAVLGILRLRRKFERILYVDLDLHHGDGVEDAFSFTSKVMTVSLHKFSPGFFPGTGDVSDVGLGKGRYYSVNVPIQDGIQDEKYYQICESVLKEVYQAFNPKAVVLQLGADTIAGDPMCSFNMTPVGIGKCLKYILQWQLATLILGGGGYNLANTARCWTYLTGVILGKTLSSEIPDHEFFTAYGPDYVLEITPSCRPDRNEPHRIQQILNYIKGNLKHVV
# Method: as §1, §2, §3, §4
# HDAC10 = HDAC10 (Homo sapiens (Human), UniProt Q969S8); experiment: HDAC10 enzymatic assay; format: biochemical; settings: selectivity profile; read-out: HDAC Enzyme IC50, HDAC 10
# Method: as §1, §2, §3, §4
# HDAC11 = HDAC11 (Homo sapiens (Human), UniProt Q96DB2); experiment: HDAC11 enzymatic assay; format: biochemical; settings: selectivity profile; read-out: HDAC Enzyme IC50, HDAC 11
# HDAC11, sequence (Q96DB2 whole entry, species assumed): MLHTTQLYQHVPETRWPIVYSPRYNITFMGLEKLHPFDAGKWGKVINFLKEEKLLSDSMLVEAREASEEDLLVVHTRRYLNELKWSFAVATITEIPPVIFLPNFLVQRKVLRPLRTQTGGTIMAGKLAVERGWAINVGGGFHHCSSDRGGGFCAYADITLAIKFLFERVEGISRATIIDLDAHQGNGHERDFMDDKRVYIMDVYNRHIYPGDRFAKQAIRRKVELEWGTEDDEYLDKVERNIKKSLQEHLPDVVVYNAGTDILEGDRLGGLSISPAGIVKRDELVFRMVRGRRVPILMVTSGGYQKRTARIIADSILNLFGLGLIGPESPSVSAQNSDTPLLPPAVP
# Method: as §1, §2, §3, §4
# HDAC3/NCOR2 = HDAC3/NCOR2 (Homo sapiens (Human), UniProt O15379); experiment: HDAC3 enzymatic assay; format: biochemical; settings: selectivity profile; read-out: HDAC Enzyme IC50, HDAC 3
# Method: as §1, §2, §3, §4
# HDAC9 = HDAC9 (Homo sapiens (Human), UniProt Q9UKV0); experiment: HDAC9 enzymatic assay; format: biochemical; settings: selectivity profile; read-out: HDAC Enzyme IC50, HDAC 9
# Method: as §1, §2, §3, §4
# HDAC4 = HDAC4 (Homo sapiens (Human), UniProt P56524); experiment: HDAC4 enzymatic assay; format: biochemical; settings: selectivity profile; read-out: HDAC Enzyme IC50, HDAC 4
# Method: as §1, §2, §3, §4
# HDAC2 = HDAC2 (Homo sapiens (Human), UniProt Q92769); experiment: HDAC2 enzymatic assay; format: biochemical; settings: selectivity profile; read-out: HDAC Enzyme IC50, HDAC 2
# HDAC2, sequence (Q92769 whole entry, species assumed): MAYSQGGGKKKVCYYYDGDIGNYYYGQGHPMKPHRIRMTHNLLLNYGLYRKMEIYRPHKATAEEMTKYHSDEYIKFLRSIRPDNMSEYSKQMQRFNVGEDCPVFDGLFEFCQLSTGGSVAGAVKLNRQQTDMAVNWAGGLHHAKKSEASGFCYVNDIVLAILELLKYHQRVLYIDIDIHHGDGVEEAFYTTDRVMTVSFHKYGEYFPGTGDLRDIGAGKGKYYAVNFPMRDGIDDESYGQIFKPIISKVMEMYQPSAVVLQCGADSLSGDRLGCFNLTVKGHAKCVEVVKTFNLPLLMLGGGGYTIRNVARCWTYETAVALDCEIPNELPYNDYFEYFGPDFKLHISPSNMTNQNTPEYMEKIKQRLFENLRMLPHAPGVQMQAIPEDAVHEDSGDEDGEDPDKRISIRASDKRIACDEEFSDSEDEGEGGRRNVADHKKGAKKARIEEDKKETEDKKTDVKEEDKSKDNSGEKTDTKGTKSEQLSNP
# Method: as §1, §2, §3, §4
# HDAC7 = HDAC7 (Homo sapiens (Human), UniProt Q8WUI4); experiment: HDAC7 enzymatic assay; format: biochemical; settings: selectivity profile; read-out: HDAC Enzyme IC50, HDAC 7
# HDAC7, sequence (Q8WUI4 whole entry): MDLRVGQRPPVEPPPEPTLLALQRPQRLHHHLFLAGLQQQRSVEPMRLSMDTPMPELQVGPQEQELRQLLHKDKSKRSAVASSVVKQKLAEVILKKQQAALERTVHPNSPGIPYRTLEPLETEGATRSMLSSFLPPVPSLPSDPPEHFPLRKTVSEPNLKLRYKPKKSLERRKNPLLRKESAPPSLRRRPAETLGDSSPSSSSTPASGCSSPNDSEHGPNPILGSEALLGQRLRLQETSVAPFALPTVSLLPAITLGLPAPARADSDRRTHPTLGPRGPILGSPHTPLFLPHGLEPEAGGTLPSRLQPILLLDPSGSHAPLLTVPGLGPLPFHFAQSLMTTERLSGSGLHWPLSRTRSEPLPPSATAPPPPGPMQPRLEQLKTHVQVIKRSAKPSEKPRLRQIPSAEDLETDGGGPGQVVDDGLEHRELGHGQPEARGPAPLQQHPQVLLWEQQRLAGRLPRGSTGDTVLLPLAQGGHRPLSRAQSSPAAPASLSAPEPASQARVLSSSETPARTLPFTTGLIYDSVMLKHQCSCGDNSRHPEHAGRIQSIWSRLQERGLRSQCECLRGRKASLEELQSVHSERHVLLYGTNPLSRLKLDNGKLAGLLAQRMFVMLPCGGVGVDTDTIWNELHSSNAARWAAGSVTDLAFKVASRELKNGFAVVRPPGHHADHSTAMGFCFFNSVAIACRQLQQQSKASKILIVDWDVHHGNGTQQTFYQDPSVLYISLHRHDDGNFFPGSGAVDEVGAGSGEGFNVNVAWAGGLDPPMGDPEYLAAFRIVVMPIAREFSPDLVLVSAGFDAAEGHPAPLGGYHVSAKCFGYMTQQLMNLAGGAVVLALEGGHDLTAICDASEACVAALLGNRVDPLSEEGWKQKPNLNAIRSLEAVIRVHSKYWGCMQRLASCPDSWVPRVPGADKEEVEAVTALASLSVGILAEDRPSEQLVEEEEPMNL
# Method: as §1, §2, §3, §4
# [2] = selectivity profile, read-out: HDAC Enzyme IC50, HDAC 1
# [3] = selectivity profile, read-out: HDAC Enzyme IC50, HDAC 6
# HDAC1, sequence (Q13547 whole entry): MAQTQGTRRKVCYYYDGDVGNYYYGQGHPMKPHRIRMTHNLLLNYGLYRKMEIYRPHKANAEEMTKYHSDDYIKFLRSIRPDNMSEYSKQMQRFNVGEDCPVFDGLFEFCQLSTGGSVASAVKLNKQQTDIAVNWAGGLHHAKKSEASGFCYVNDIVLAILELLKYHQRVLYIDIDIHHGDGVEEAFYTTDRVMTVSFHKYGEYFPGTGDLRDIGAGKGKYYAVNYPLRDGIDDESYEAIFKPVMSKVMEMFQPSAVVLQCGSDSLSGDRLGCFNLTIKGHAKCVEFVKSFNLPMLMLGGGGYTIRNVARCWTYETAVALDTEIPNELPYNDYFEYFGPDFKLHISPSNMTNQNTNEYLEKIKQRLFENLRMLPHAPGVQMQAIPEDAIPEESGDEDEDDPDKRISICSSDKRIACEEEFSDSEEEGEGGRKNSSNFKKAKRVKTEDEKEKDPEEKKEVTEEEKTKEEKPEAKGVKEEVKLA
IC50 (HDAC1; read-out: Human HDAC1 IC50) [µM],Cmax [1] [ng/mL],half-life [1] [h],IC50 (HDAC6; read-out: Human HDAC6 IC50) [µM],Compound,also measured
> 30,2370,3.2,0.016,"CS(=O)(=O)NCC(Nc1ncc(-c2nnc(C(F)F)o2)cn1)c1ccc(F)cc1F (single isomer, unassigned) [103(+), N-(2-((5-(5-(difluoromethyl)-1,3,4-oxadiazol-2-yl)pyrimidin-2-yl)amino)-2-(2,4-difluorophenyl)ethyl)methanesulfonamide]",–
–,1360,3.5,–,"CN(CC(Nc1ncc(-c2nnc(C(F)F)o2)cn1)c1ccc(F)cc1)S(C)(=O)=O (single isomer, unassigned) [113(+), N-(2-((5-(5-(difluoromethyl)-1,3,4-oxadiazol-2-yl)pyrimidin-2-yl)amino)-2-(4-fluorophenyl)ethyl)-N-methylmethanesulfonamide]",–
> 30,1010,4.5,0.017,"CS(=O)(=O)NCC(Nc1ncc(-c2nnc(C(F)F)o2)cn1)c1ccc(OC(F)F)cc1F (single isomer, unassigned) [116(+), N-(2-(4-(difluoromethoxy)-2-fluorophenyl)-2-((5-(5-(difluoromethyl)-1,3,4-oxadiazol-2-yl)pyrimidin-2-yl)amino)ethyl)methanesulfonamide]",–
> 30,–,–,0.043,"CS(=O)(=O)CC(Nc1ncc(-c2nnc(C(F)F)o2)cn1)c1ccc(F)cc1 (single isomer, unassigned) [161(+), 5-(5-(difluoromethyl)-1,3,4-oxadiazol-2-yl)-N-(1-(4-fluorophenyl)-2-(methylsulfonyl)ethyl)pyrimidin-2-amine]",IC50 (HDAC5): > 30 µM; IC50 (HDAC8): > 30 µM; IC50 (HDAC1; [2]): > 30 µM; IC50 (HDAC10): > 30 µM; IC50 (HDAC11): > 30 µM; IC50 (HDAC3/NCOR2): > 30 µM; IC50 (HDAC9): > 30 µM; IC50 (HDAC4): > 30 µM; IC50 (HDAC2): > 30 µM; IC50 (HDAC7): > 30 µM; IC50 (HDAC6; [3]): 0.043 µM
> 30,–,–,0.029,"O=C(NCC(Nc1ncc(-c2nnc(C(F)F)o2)cn1)c1ccc(F)cc1)C1CC1 (single isomer, unassigned) [168(+), N-(2-((5-(5-(difluoromethyl)-1,3,4-oxadiazol-2-yl)pyrimidin-2-yl)amino)-2-(4-fluorophenyl)ethyl)cyclopropanecarboxamide]",IC50 (HDAC5): > 30 µM; IC50 (HDAC8): > 30 µM; IC50 (HDAC1; [2]): > 30 µM; IC50 (HDAC10): > 30 µM; IC50 (HDAC11): > 30 µM; IC50 (HDAC3/NCOR2): > 30 µM; IC50 (HDAC9): > 30 µM; IC50 (HDAC4): 13.8 µM; IC50 (HDAC2): > 30 µM; IC50 (HDAC7): 24.4 µM; IC50 (HDAC6; [3]): 0.029 µM
> 30,2590,3.3,0.23,"CS(=O)(=O)NCC(Nc1ncc(-c2nnc(C(F)F)o2)cn1)c1ccc(F)c(F)c1 (single isomer, unassigned) [171(+), N-(2-((5-(5-(difluoromethyl)-1,3,4-oxadiazol-2-yl)pyrimidin-2-yl)amino)-2-(3,4-difluorophenyl)ethyl)methanesulfonamide]",–
> 30,2820,5.6,0.024,"CS(=O)(=O)NCC(Nc1ncc(-c2nnc(C(F)F)o2)cn1)c1ccc(Cl)cc1 (single isomer, unassigned) [173(+), N-(2-(4-chlorophenyl)-2-((5-(5-(difluoromethyl)-1,3,4-oxadiazol-2-yl)pyrimidin-2-yl)amino)ethyl)methanesulfonamide]",–
> 30,2530,4.1,0.035,"O=S(=O)(NCC(Nc1ncc(-c2nnc(C(F)F)o2)cn1)c1ccc(F)cc1F)C1CC1 (stereo not drawn) [142(+), N-(2-((5-(5-(difluoromethyl)-1,3,4-oxadiazol-2-yl)pyrimidin-2-yl)amino)-2-(2,4-difluorophenyl)ethyl)cyclopropanesulfonamide]",–
> 30,3390,9.3,0.023,"O=S(=O)(NCC(Nc1ncc(-c2nnc(C(F)F)o2)cn1)c1ccc(OC(F)F)cc1F)C1CC1 (stereo not drawn) [150(+), N-(2-(4-(difluoromethoxy)-2-fluorophenyl)-2-((5-(5-(difluoromethyl)-1,3,4-oxadiazol-2-yl)pyrimidin-2-yl)amino)ethyl)cyclopropanesulfonamide]",–
> 30,2120,2.3,0.027,"CCS(=O)(=O)NCC(Nc1ncc(-c2nnc(C(F)F)o2)cn1)c1ccc(F)cc1 (stereo not shown) [Example 108, N-(2-((5-(5-(difluoromethyl)-1,3,4-oxadiazol-2-yl)pyrimidin-2-yl)amino)-2-(4-fluorophenyl)ethyl)ethanesulfonamide]",–
> 30,678,3.4,0.037,"CC(C)S(=O)(=O)NCC(Nc1ncc(-c2nnc(C(F)F)o2)cn1)c1ccc(F)cc1 (stereo not shown) [Example 109, N-(2-((5-(5-(difluoromethyl)-1,3,4-oxadiazol-2-yl)pyrimidin-2-yl)amino)-2-(4-fluorophenyl)ethyl)propane-2-sulfonamide]",–
> 30,–,–,0.33,"CS(=O)(=O)Nc1ccc(CC(Nc2ncc(-c3nnc(C(F)F)o3)cn2)c2ccc(F)cc2)cc1 (stereo not shown) [Example 133, N-(4-(2-((5-(5-(difluoromethyl)-1,3,4-oxadiazol-2-yl)pyrimidin-2-yl)amino)-2-(4-fluorophenyl)ethyl)phenyl)methanesulfonamide]",–
–,47,2.7,–,"O=C(CCCCCCNC(=O)c1cnc(N(c2ccccc2)c2ccccc2)nc1)NO [Ricolinostat, ricolinostat, reference compound]",–
